Series [1] has as its system A549 cells. Put plainly: Intracellular free zinc (FluoZin-3 fluorescence), A549. Format: cell-based, human. The conditions noted are these: for Increase in cellular FluoZin-3 fluorescence: A549, MGd in the absence of actinomycin D. Here is the method:
Methods: The concentration of intracellular free zinc was assessed using the ion-specific fluorescent probe, FluoZin-3-AM™ (FluoZin-3, Molecular Probes, Inc.). […] Following treatment, cells were isolated by centrifugation. Cell pellets were washed and re-suspended in a solution of 0.5% BSA in PBS.

Series [2] has as its system Ramos cells. Kind of series: Intracellular free zinc (FluoZin-3 fluorescence), Ramos. The note with it: 10 μM MGd or 50 μM zinc alone. Type of series: cell-based. As for the experimental part:
Methods: Intracellular Free Zinc. The concentration of intracellular free zinc was assessed using the ion-specific fluorescent probe, FluoZin-3-AM™ (FluoZin-3, Molecular Probes, Inc.). […] Following treatment, cells were isolated by centrifugation. Cell pellets were washed and re-suspended in a solution of 0.5% BSA in PBS.

Series [3] relates to A549 cells. Put plainly: Proliferation (tetrazole reduction/MTT), A549. Type of series: cell-based, human. The conditions noted are these: for A549 cell proliferation: exponential phase, 24 hours treatment plus 48 hr growth, zinc up to 100 μM. Here is the method: (§1) Methods: The proliferation of exponential phase cultures was assessed by colorimetric assay. In brief, 2×10^5 suspension cells per well were seeded on 96-well V-bottom microtiter plates. Stock solutions of control vehicle, MGd or Zn(OAc)2 in medium were added and plates were incubated at 37° C. under a 5% CO2/95% air atmosphere. After 24 hours, medium was replaced with fresh medium. After 2 additional days, medium was exchanged with fresh medium (150 μL/well) supplemented with 3-(4,5-dimethylthiazol-2-yl)-2,5-diphenyltetrazolium bromide (MTT, 0.5 mg/mL, Sigma Biochemical, St. Louis, Mo.). Plates were incubated at 37° C. and viable cells measured.

For series [4], the system named is PC3 cells. Kind of series: Proliferation, PC3. Format: cell-based. Here is the method: as §1
Series [5] deals with Ramos B-cell lymphoma cells. Kind of series: Proliferation, Ramos. The note with it: 50 μM zinc. Type of series: cell-based. Here is the method: as §1
as §1, with “Cellular Proliferation—The” for “Methods: The”

Series [6] concerns PC3 cells. Put plainly: Colony forming assay, PC3. Type of series: cell-based. The note with it: 10 μM MGd, 75 μM zinc.
A further series deals with Thioredoxin reductase. Put plainly: Lipoate reduction (thioredoxin reductase activity) in intact A549 cells. Type of series: cell-based, human. The conditions noted are these: for Inhibition of lipoate reduction: plateau phase A549, two-hour treatment. Here is the method:
Methods: Lipoate Reduction. Thioredoxin reductase activity was assessed by measuring the rate of lipoate reduction. In brief, A549 or PC3 cells (10,000 cells/well) were plated on 96-well plates and allowed to adhere overnight and grow two additional days until confluent. Cells were treated with MGd, zinc, or 5% mannitol for 2-4 hours, as indicated. Medium was removed, cells were washed with Hanks Balanced Salt Solution (HBSS), and a solution of 5 mM lipoic acid and 1 mM 5,5′-dithiobis(2-nitrobenzoic acid) in HBSS (100 μL/well) was added. Plates were incubated at ambient temperature in the dark. At chosen time intervals, plate absorbance was measured at 405-650 nm. Plate absorbances were normalized to wells containing neither exogenous zinc nor texaphyrin complex to allow plate-to-plate comparison. In some experiments, L-buthionine-[S,R]-sulfoximine (BSO, 100 μM) was added 24 hours prior to MGd or zinc treatment, to inhibit any contribution to lipoate reduction made by glutathione-dependent pathways (28). Actinomycin D (2.5 μg/mL) or cycloheximide (10 μg/mL), where present, was added 1 hour prior to texaphyrin or zinc treatment. Viability was checked on parallel plates using the tetrazolium dye 3-(4,5-dimethylthiazol-2-yl)-5-(3-carboxymethoxyphenyl)-2-(4-sulfophenyl)-2H-tetrazolium (MTS) following the manufacturers protocol (Promega Corp.).

In series [7] the test system is Ramos cells. Put plainly: Reactive oxygen species (DCFA to DCF), Ramos. Format: cell-based. The note with it: single agents. Here is the method:
Methods: Reactive oxygen species were measured in live cells as intracellular peroxides by monitoring the oxidation of 2′,7′-dichlorofluorescin-diacetate (DCFA) to 2′,7′-dichlorofluorescein (DCF) (Molecular Probes). Cells (1×10^6 per mL) were incubated in a solution of 1 μg per mL DCFA in 0.5% BSA in HBSS for 15 minutes at 37° C. Two mL additional 0.5% BSA in HBSS was added, cells were isolated by centrifugation, and the pellet re-suspended in a solution of 50 μg/mL 7-aminoactinomycin D (7-AAD) in 0.5% BSA in HBSS. Cell suspensions were incubated at ambient temperature for 2 to 3 minutes, and stored on ice until analysis. The fluorescent intensity in live (i.e., 7-AAD impermeable) cells was analyzed by flow cytometry.

The subject of series [8] is Ramos cells. Kind of series: Annexin-V apoptosis, Ramos. The note with it: single agent alone. Type of series: cell-based. Here is the method:
Methods: Annexin V/PI. Cells from exponential phase cultures were treated with MGd, zinc, or control (5% mannitol) solution for 24 or 48 hours. After incubation, cells were harvested and washed twice with a solution of 0.5% bovine serum albumin (BSA) in Hanks buffered saline (HBSS). An aliquot of cells (1×10^6) was added to 500 μL diluted binding buffer from the ANNEXIN-V PI Kit (BD Biosciences, San Jose, Calif.). Cells were pelleted, re-suspended in 100 μL of diluted binding buffer, and treated with the ANNEXIN-V PI reagent as per the manufacturer's protocol.

In series [9] the test system is Ramos, Raji, DB, DHL-4, HF-1, Jurkat, K562 and HL-60 cell lines. Put plainly: Proliferation of hematologic cell lines. Type of series: cell-based. The note with it: for Effect on proliferation: low concentrations of zinc or MGd alone. Here is the method:
as §1, with “Cellular Proliferation—The” for “Methods: The”

Series [10] has as its system A549 cells. Put plainly: Cell viability by propidium iodide exclusion, A549.
Description: Methods: Cellular Viability. Cell viability was determined by using propidium iodide (PI) flow cytometric analysis. Cells from plateau phase cultures grown in T-25 flasks were harvested as described above, except that cells present in the growth medium and wash solution were isolated by centrifugation and included in the analysis. Cells were resuspended in 1 mL PBS, an aliquot of 3×10^5 cells transferred to a 4 mL tube, and the cells isolated by centrifugation. Cell pellets were resuspended in PBS supplemented with 2 μg/mL propidium iodide (Sigma), incubated for 5 minutes at ambient temperature, and subjected to flow cytometric analysis. Flow cytometry was performed on a FACSCalibur instrument and data were analyzed using the CellQuest Pro software package (BD Biosciences).

For `CC(=O)[O-].CC(=O)[O-].CCc1c(CC)c2cc3nc(cnc4cc(OCCOCCOCCOC)c(OCCOCCOCCOC)cc4ncc4nc(cc1[n-]2)C(CCCO)=C4C)C(C)=C3CCCO.O.[Gd+3]` [MGd, Motexafin gadolinium], the “Increase in cellular FluoZin-3 fluorescence” value worked out at 1.2 fold in the series on A549 cells [1] (serum medium) and 1.1 fold in the series with A549 cells [1] (serum-free medium). For the same molecule, the FluoZin-3 fluorescence result with Ramos cells [2] (by 12 hours) was “returned to baseline levels”; in the series with Ramos cells [2] (within 2 hours), “small increases”. In addition, in the series on A549 cells [3] (A549, all MGd concentrations tested), the “Effect of MGd on the anti-proliferative activity of zinc” value is “enhanced the anti-proliferative activity of zinc”. The A549 cell proliferation entry with A549 cells [3] is recorded as “no effect on proliferation”. Further, the “Effect of MGd on the effect of zinc on proliferation” value with PC3 cells [4] (PC3) is “enhanced the effect of zinc”. For the same molecule, in series [5], the Cellular proliferation result was “without effect”. In addition, the Surviving fraction entry in the series with PC3 cells [6] is recorded as “without effect”. Besides, in the series with Thioredoxin reductase (A549), the “Effect of MGd on inhibition of lipoate reduction by zinc” value was “potentiated”. In the series with Thioredoxin reductase (A549, dose-dependent effect of MGd on inhibition with zinc), the “Apparent inhibitory concentration of MGd” value is recorded as “approximately 2.5 μM”. The “Concentration above which the effect of MGd on lipoate reduction saturated” value with Thioredoxin reductase (A549, potentiation of zinc inhibition) is reported as “approximately 5 μM”. In addition, the “Inhibition of lipoate reduction” value with Thioredoxin reductase was “approximately 10%”. Also, in the series on Ramos cells [7], the DCF signal entry is given as “increased DCF signal”. Also, the Annexin-V signal result with Ramos cells [8] is recorded as “No significant change”. For the same molecule, the “Effect of MGd on sensitivity to zinc (proliferation)” value in series [9] (all cell lines) is given as “increased”. For the same molecule, the “Effect of MGd co-treatment on the inhibition of proliferation by zinc” value in series [9] (all lines except HL60) is “potentiated the inhibition by zinc”. The Effect on proliferation result in [9] (all cell lines) is “no significant effect”. Besides, in the series on A549 cells [10] (A549 cells, FIG. 2A), the “Effect of MGd on the cytotoxicity of CdCl2” value is “attenuated”.

Consider `CC(=O)[O-].CC(=O)[O-].[Zn+2]` [Zn(OAc)2, Zinc acetate], for which the “Cell-associated fluorescence of FluoZin-3 at 530 nm” value with A549 cells [1] (A549, 4 hours, Zn(OAc)2 50-100 μM) is “significantly increased”. Moreover, the FluoZin-3 fluorescence entry in the series on Ramos cells [2] (by 12 hours) is “returned to baseline levels”; with Ramos cells [2] (within 2 hours) it was “small increases”. Also, the A549 cell proliferation result with A549 cells [3] is recorded as “modestly inhibited”. Also, the PC3 cell proliferation entry in the series on PC3 cells [4] was “inhibited”. For the same molecule, the Cellular proliferation result in [5] is listed as “without effect”. The Surviving fraction entry with PC3 cells [6] was “without effect”. Further, the “Inhibition of lipoate reduction” value in the series on Thioredoxin reductase is listed as not above 30%. The DCF signal entry in the series on Ramos cells [7] is “increased DCF signal”. The Annexin-V signal entry with Ramos cells [8] is “No significant change”. The Proliferation entry in series [9] (50 to 100 μM zinc, four additional B-cell lines, K562, Jurkat) is recorded as “inhibited the proliferation”. Further, in series [9] (all cell lines), the Effect on proliferation result is given as “no significant effect”. Further, the “Cellular viability (propidium iodide exclusion)” value with A549 cells [10] (A549, 24 hours, Zn(OAc)2 100 μM, CdCl2 50 μM, MGd 50 μM) is recorded as “no effect on cellular viability”.

The record behind these values is patent publication US20090197853A1, “METHODS AND COMPOSITIONS OF TREATING CANCER” (priority 2005, published 2009).
